In paper PMC10492782, “Exploiting the aggregation propensity of beta-lactamases to design inhibitors that induce enzyme misfolding” (Nature Communications, 2023):

What was measured:
[1] = system: primary mouse cortical neurons; settings: 24 h, 400 to 6.25 µg/mL
Protocol: (§1) The Cell Titer Blue assay was performed to evaluate the cell viability according to the instructions of the manufacturer (Promega, USA). The peptide treatments were done in DMEM medium without serum. Briefly, cells were seeded to approximately 20,000 mammalian cells per well in a 96-well flat-bottom plate (BD Biosciences 353075) and incubated at 37 °C with 5% CO2 and 90% humidity. Peptides were diluted in cell medium, and cells were treated for 24 h. 20 μL of the CellTiter Blue reagent was added to each well and the plate was incubated for 1 h at 37 °C. The fluorescence was measured at 590 nm by exciting at 560 nm with a ClarioStar plate reader (BMG Labtech, Germany).
(§2) Khodaparast et al Supplementary data
(§3) Supplementary Figure 12: Cell viability assays on mammalian cells using the CellTiter Blue assay, plotted as relative values compared to vehicle. The colours of the bars show the concentrations indicated in the legends in µg/mL, ranging from 400 to 6.25 µg/mL. The dots indicate individual measurements on independent wells of cells (4 repeats), the bars

SH-SY5Y = settings: 24 h, 400 to 6.25 µg/mL
Protocol: as §1, §2, §3

NCI-H441 = settings: 24 h, 400 to 12.5 µg/mL
Protocol: as §1, §2, §3

HT-1376 = settings: 24 h, 400 to 6.25 µg/mL
Protocol: as §1, §2, §3

HEK293 = settings: 24 h, 400 to 6.25 µg/mL
Protocol: as §1, §2, §3

E. coli SHV11 = test: Checkerboard assay (FICI); type: cell-based, Escherichia coli; settings: strain containing SHV-11, FICI below 0.5 = synergy
Protocol: To quantify the synergy between these four peptides and penicillin G, we performed a so-called checkerboard assay, which allows us to compare the activity of two test compounds co-incubated (here peptide and a beta-lactam antibiotic), to their individual activities in isolation. […] We evaluated the synergy of the peptides with penicillin G in clinical E. coli isolates carrying the TEM (Fig. 3D) or SHV enzymes (Fig. 3E). […] The list of strains included some that harbored only TEM or SHV, but others contained additional Ambler Class A (CTX-M or OXA) or Class B (VIM and NDM) beta-lactamases.
For the analysis of synergy between the peptides and other antibiotics, a checkerboard assay was performed. Based on the MICs of the selected peptides, a checkerboard assay was designed to define their FICIs (Fractional Inhibitory Concentration Index) in combinations against different clinical isolates[53],[54]. Briefly, a total volume of 100 μL of Mueller–Hinton broth was distributed into each well of the 96-well plates. […] FICI is calculated as the sum of the individual fractional inhibitory concentrations (FICs) for each drug (where MIC A and MIC B denote the MIC of each drug alone, and MIC AA+B and MIC BA+B denote the concentrations of A and B in the drug combination). […]

[2] = Thioflavin-T aggregation kinetics and electron microscopy of peptide; type: physicochemical; settings: 50 μM peptide with polyphosphate; EM after 24 h incubation at RT
Protocol: Fig. 4 Aggregation kinetics of TEM and SHV proteins and peptides. A Measurements of the hydrodynamic radius by Dynamic Light Scattering of 50 μM TEM3.2 in buffer alone, or in the presence of LPS or polyphosphate (PolyP). […] C Transmission Electron Micrograph of 50 μM TEM 3.2 incubated for 24 h in the same buffer as A with polyP, negatively stained with 2% (w/v) uranyl acetate. A single representative image is shown. […] Three replicates are shown for each condition. E Aggregation kinetics using pFTAA fluorescence emission of recombinantly purified TEM-1, in the presence of vehicle, or TEM 3.2 peptin, as well as peptin-only control. F Similar as in E, but using an off-target Pept-In, based on an APR sequence of beta-galactosidase. G Similar to E, but now using a previously published off-target Pept-In, based on an APR of HcaB. The plots are the results of a single experiment, all replicates are shown. Source data are provided as a Source Data file.
A DynaPro DLS plate reader instrument (Wyatt, Santa Barbara, CA, USA) equipped with an 830 nm laser source was used to determine the hydrodynamic radius (RH) of the peptide particles. […] The autocorrelation of scattered light intensity at a 32° angle was recorded for 5 s and averaged over 20 recordings to obtain a single data point. […]

## Ac-RLTAFLHNRRPRLTAFLRQRR-NH2 [TEM3.2]
[1]
  cytotoxicity, Cell Titer Blue (in words): not cytotoxic
SH-SY5Y
  cytotoxicity, Cell Titer Blue (in words): not cytotoxic
NCI-H441
  cytotoxicity, Cell Titer Blue (in words): not cytotoxic
HT-1376
  cytotoxicity, Cell Titer Blue (in words): not cytotoxic
HEK293
  cytotoxicity, Cell Titer Blue (in words): not cytotoxic
E. coli SHV11
  synergy with penicillin G (in words): showed synergy in both strains
[2]
  Thioflavin T binding and Transmission Electron Microscopy (in words): amyloid-like aggregation in the presence of polyphosphate
